According to US20210106703A1, “RADIOIMMUNOCONJUGATES IN COMBINATION WITH OTHER DRUGS AS TREATMENT AGAINST NHL” (Nordic Nanovector ASA, priority 2017, published 2021):
Entries after “also recorded” stand apart in the source; their conditions may differ.

T1: CD37 receptor (Homo sapiens, UniProt P11049)
T1 sequence (P11049 1-281): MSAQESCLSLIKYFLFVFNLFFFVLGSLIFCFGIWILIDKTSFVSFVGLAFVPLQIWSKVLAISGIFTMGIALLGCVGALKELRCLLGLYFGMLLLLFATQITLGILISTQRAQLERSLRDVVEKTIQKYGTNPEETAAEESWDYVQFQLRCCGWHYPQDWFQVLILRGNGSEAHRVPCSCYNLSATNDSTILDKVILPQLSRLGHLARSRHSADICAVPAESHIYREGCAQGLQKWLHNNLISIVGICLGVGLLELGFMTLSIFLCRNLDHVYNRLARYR


Key:
DOHH2 cells [1] = experiment: Proliferation study with Wee-1/Myt-1 inhibitors and ^177Lu-lilotomab; assay type: cell-based, human; conditions: DOHH2, inhibitor alone 1 μM for 18 h, 6 days after start
Description: (§1) Cells were treated for 18 h with 1 μM of the selective Wee-1 kinase inhibitor MK-1775 (Selleckchem, Houston, USA) or of the dual Wee-1/Myt-1 inhibitor PD-166285 (EMD Merck Millipore/Calbiochem, Molsheim, France) alone or in combination with 6 MBq/mL, 2 MBq/mL and 0.5 MB/mL of ^177Lu-lilotomab for Ramos, Rec-1 and DOHH2 cells respectively. At different times after start of incubation, proteins were extracted to measure the CDK1 phosphorylation levels, in parallel, proliferation was determined and at 18 h and 24 h after start of incubation, the percentage of cells in G2/M was assessed (experiments were performed three time except the cell cycle analysis).
(§2) The activity used for the treatment with ^177Lu-lilotomab was chosen to decrease the proliferation to about 50% for the three cell lines compared with non-treated cells.
(§3) Inhibition of G2/M cell cycle arrest radiosensitises radioresistant Ramos model. The Bliss independence mathematical model was next used to investigate the role of MK-1775 or PD-166285 on the response to ^177Lu-lilotomab. A theoretical therapeutic efficacy was calculated for the two combinations (MK-1775 or PD-166285) in the three cell lines. And the comparison between the experimental and the theoretical curves was done.
(§4) Theoretical efficacyRIT+inhib=EfficacyRIT+Efficacyinhib−(EfficacyRIT×Efficacyinhib)

Ramos cells [2] = experiment: as above; assay type: cell-based, human; conditions: inhibitor 1 μM + ^177Lu-lilotomab 6 MBq/mL (RIT) for 18 h, 6 days after start
Description: as §1, §2, §3, §4

OCI-Ly8 cells = experiment: Cell cycle analysis (PI, Muse flow cytometer); assay type: cell-based, human; conditions: OCI-Ly8, 1 μM inhibitor + ^177Lu-lilotomab, versus ^177Lu-lilotomab alone
Description: Cells were harvested at 0 […], and fixed in 70% ethanol at -20° C. for at least 3 h. After staining with the Muse® Cell Cycle Assay Kit (Merck Millipore, Molsheim, France) using propidium iodide in the dark at room temperature for 30 min, cell cycle distribution was analyzed using a Muse® flow cytometer. The percentage of cells in the G0/G1, S and G2/M was calculated (mean of three experiments in triplicate) and the effect of WEE-1 and MYT-1 kinase inhibitors on the cell cycle was assessed.

DOHH2 cells [3] = experiment: Cell cycle analysis (PI, Muse flow cytometer); assay type: cell-based, human; conditions: DOHH2, 1 μM inhibitor + ^177Lu-lilotomab, versus ^177Lu-lilotomab alone or untreated
Description: (§5) Cells were harvested at day 0, 2 h, 18 h, 1 d, 2 d, 3 d, of RIT then fixed in 70% ethanol at −20° C. for 3 hours and stained with Cell Cycle kit (with PI) reagent from Merck Millipore in the dark for 30 min at room temperature before analysis using a Muse® flow cytometer. The percentage of cells in G0/G1, S and G2/M phases was then calculated (mean of three experiments in triplicate).
(§6) At different times after start of incubation, proteins were extracted to measure the CDK1 phosphorylation levels, in parallel, proliferation was determined and at 18 h and 24 h after start of incubation, the percentage of cells in G2/M was assessed (experiments were performed three time except the cell cycle analysis).
(§7) Cells were harvested at 0 h, 2 h, 18 h, 1 d, 2 d, 3 d, and fixed in 70% ethanol at −20° C. for at least 3 h. After staining with the Muse® Cell Cycle Assay Kit (Merck Millipore, Molsheim, France) using propidium iodide in the dark at room temperature for 30 min, cell cycle distribution was analyzed using a Muse® flow cytometer. The percentage of cells in the G0/G1, S and G2/M was calculated (mean of three experiments in triplicate) and the effect of WEE-1 and MYT-1 kinase inhibitors on the cell cycle was assessed.

Rec-1 cells [4] = experiment: Cell cycle analysis (PI, Muse flow cytometer); assay type: cell-based, human; conditions: Rec-1, 1 μM inhibitor + ^177Lu-lilotomab, versus ^177Lu-lilotomab alone or untreated
Description: as §5, §6, §7

Ramos cells [5] = experiment: Cell cycle analysis (PI, Muse flow cytometer); assay type: cell-based, human; conditions: 1 μM inhibitor + ^177Lu-lilotomab, versus ^177Lu-lilotomab alone or untreated
Description: as §5, §6, §7

OCI-Ly8 tumor xenografts = experiment: Treatment of mice with tumor xenografts; conditions: single agent
DOHH2 cells [6] = experiment: Apoptosis induction (Annexin V/7-AAD, Muse flow cytometer); assay type: cell-based, human; conditions: DOHH2, 18 h exposure to unlabelled mAb, plateau at 18 h
Description: (§8) Cells were harvested at 0, 2 h, 18 h, 1 d, 2 d, 3 d of RIT. At each time point, apoptosis was detected with […] from Merck Millipore (Annexin V Kit with 7-AAD) in the dark for 30 min at room temperature before analysis using Muse® flow cytometer

Rec-1 cells [7] = experiment: as above; assay type: cell-based, human; conditions: Rec-1, 18 h exposure to unlabelled mAb, at peak time
Description: as §8

Ramos cells [8] = experiment: as above; assay type: cell-based, human; conditions: 18 h exposure to unlabelled mAb, at peak time
Description: as §8

CD37 receptor = target: T1, CD37 receptor; conditions: cited from earlier work

Molecule	Proliferation (treated/untreated cells) (DOHH2 cells [1]) [%]	Proliferation (treated/untreated cells) (Ramos cells [2]) [%]	Proportion of cells in G2/M, inhibitor combined with ^177Lu-lilotomab (OCI-Ly8 cells)	Proportion of cells in G2/M, inhibitor combined with ^177Lu-lilotomab (DOHH2 cells [3])	Proportion of cells in G2/M, inhibitor combined with ^177Lu-lilotomab (Rec-1 cells [4])	Proportion of cells in G2/M, inhibitor combined with ^177Lu-lilotomab (Ramos cells [5])	Therapeutic efficacy compared with control (OCI-Ly8 tumor xenografts)	Apoptosis level (DOHH2 cells [6])	Apoptosis level (Rec-1 cells [7])	Apoptosis level (Ramos cells [8])	Equilibrium dissociation constant (CD37 receptor)
CCN(CC)CCOc1ccc(Nc2ncc3cc(-c4c(Cl)cccc4Cl)c(=O)n(C)c3n2)cc1 [PD-166285]	18	~10	reduction of the fraction of G2/M cells	higher than that induced by the combination with the MK-1775; also recorded: reduction of the fraction of G2/M cells	reduction of the fraction of G2/M cells	reduction of the fraction of G2/M cells	–	–	–	–	–
lilotomab: murine anti-CD37 IgG1 mAb (antibody, chains of the INN, looked up, V domains shown) VH: EIQLQQSGPELVKPGASVKVSCKASGYSFTDYNMYWVKQSHGKSLEWIGYIDPYNGDTTYNQKFKGKATLTVDKSSSTAFIHLNSLTSEDSAVYYCARSPYGHYAMDYWGQGTSVTVSS VL: DIVMTQSHKLLSTSVGDRVSITCKASQDVSTAVDWYQQKPGQSPKLLINWASTRHTGVPDRFTGSGSGTDYTLTISSMQAEDLALYYCRQHYSTPFTFGSGTKLEIK	–	–	–	–	–	–	no therapeutic efficacy	No apoptosis was induced	No apoptosis was induced	No apoptosis was induced	nanomolar
